The source of these data is patent US10575526B2 (priority 2004, dated 2020).

Structures are written as SMILES.

Series [1] deals with Asian soybean rust. Description: Field trial of glyphosate and Opera fungicide on Asian soybean rust. In kind it is in vivo, Phakopsora pachyrhizi. As to the method:
A field study was conducted to further confirm the greenhouse study. The same cultivars were planted in three replicated plots and treatments as described in the greenhouse study. […] All treatments were effective in preventing disease on RR8045 cultivar.

Series [2] deals with Pseudocercosporella. Put plainly: In vitro fungal cell growth on media containing glyphosate. Format: cell-based. To be noted: crop of interest Wheat.
In series [3] the target is corn EPSPS. The conditions noted are these: read-out: Ki for glyphosate; cited from earlier work.
The test system of series [4] is Asian soybean rust. Put plainly: Greenhouse study of glyphosate and Opera fungicide on Asian soybean rust. Format: in vivo, Phakopsora pachyrhizi.
Series [5] deals with Botrytis. Description: In vitro fungal cell growth on media containing glyphosate. In kind it is cell-based. The conditions noted are these: crop of interest Veg/strawberry.
Series [6] is described as follows: Glyphosate residue analysis in RR cotton. Format: in vivo. To be noted: 3 × 1.5 lb, OT/PD/PH, seed. From the text: The selection of application rates that are effective for a specific plant pathogen is within the skill of the ordinary agricultural scientist. […] Useful application rates for the glyphosate compositions employed can depend upon all of the above conditions.

For orientation: Ki means a dissociation constant, usually derived from enzyme kinetics or from competition with a known ligand. Regarding `O=C(O)CNCP(=O)(O)O` [glyphosate, N-phosphonomethylglycine], the “%_disease” value in series [1] (RR8000, glyp 1X) was found to be 23.3%; in series [1] (RR8000, glyp 2X), 10.0%; in series [1] (RR8045, glyp 1X), 0.0%; in series [1] (RR8045, glyp 2X), 1.7%. The “In vitro EC90, ppm” value in series [2] and in series [5] was below 100 ppm throughout. The Ki in series [3] was 500 nM. The “percent disease of Asian soybean rust” value in series [4] (RR8000, Trt 2 glyp 1X every two weeks from V3, 14 d-1 spray) stood at 23.3%; in series [4] (RR8000, Trt 2 glyp 1X every two weeks from V3, 28 d-2 sprays), 41.7%; in series [4] (RR8000, Trt 2 glyp 1X every two weeks from V3, 42 d-3 sprays), 48.3%; in series [4] (RR8000, Trt 2 glyp 1X every two weeks from V3, 56 d-4 sprays) it was 88.3%; in series [4] (RR8000, Trt 3 glyp 2X every two weeks from V3, 14 d-1 spray), 10.0%; in series [4] (RR8000, Trt 3 glyp 2X every two weeks from V3, 28 d-2 sprays), 10.0%. The “percent disease of Asian soybean rust” value was found to be 10.0% in series [4] (RR8000, Trt 3 glyp 2X every two weeks from V3, 42 d-3 sprays); 30.0% in series [4] (RR8000, Trt 3 glyp 2X every two weeks from V3, 56 d-4 sprays); 50.0% in series [4] (RR8045, Trt 2 glyp 1X every two weeks from V3, 14 d-1 spray); 56.7% in series [4] (RR8045, Trt 2 glyp 1X every two weeks from V3, 28 d-2 sprays); 71.7% in series [4] (RR8045, Trt 2 glyp 1X every two weeks from V3, 42 d-3 sprays); 86.7% in series [4] (RR8045, Trt 2 glyp 1X every two weeks from V3, 56 d-4 sprays). Also, the “percent disease of Asian soybean rust” value in series [4] (RR8045, Trt 3 glyp 2X every two weeks from V3, 14 d-1 spray) amounted to 3.3%; in series [4] (RR8045, Trt 3 glyp 2X every two weeks from V3, 28 d-2 sprays) it was 10.0%; in series [4] (RR8045, Trt 3 glyp 2X every two weeks from V3, 42 d-3 sprays) it was 13.3%; in series [4] (RR8045, Trt 3 glyp 2X every two weeks from V3, 56 d-4 sprays) it was 73.3%. Moreover, in series [6], the “Gly (ppm)” value is on record as 1.60 ppm.
